Laboratory results as given in ChEMBL document CHEMBL1139391, “Synthesis and structure-activity relationship of benzetimide derivatives as human CXCR3 antagonists” (Bioorg Med Chem Lett, 2008).

Legend:
[1] = target: T1, C-X-C chemokine receptor type 3 (Homo sapiens, UniProt P49682); assay: Antagonist activity at human CXCR3 expressed in CHO cells assessed as inhibition of ITAC-stimulated [35S]GTPgammaS binding pretreated 30 mins before ITAC challenge; format: functional, cell-based
T1 sequence (P49682 whole entry): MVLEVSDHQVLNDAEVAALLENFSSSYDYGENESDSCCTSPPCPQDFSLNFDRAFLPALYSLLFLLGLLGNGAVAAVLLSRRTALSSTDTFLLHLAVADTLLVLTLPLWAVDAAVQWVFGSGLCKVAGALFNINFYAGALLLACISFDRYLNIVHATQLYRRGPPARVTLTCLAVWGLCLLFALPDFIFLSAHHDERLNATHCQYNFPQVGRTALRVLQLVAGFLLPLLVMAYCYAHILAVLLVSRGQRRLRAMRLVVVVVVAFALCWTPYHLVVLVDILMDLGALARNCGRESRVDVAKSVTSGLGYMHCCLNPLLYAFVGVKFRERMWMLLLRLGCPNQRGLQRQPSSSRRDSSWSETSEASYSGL

[2] = target: T2, Muscarinic acetylcholine receptor M2 (Homo sapiens, UniProt P08172); assay: Binding affinity to human muscarinic M2 receptor
T2 sequence (P08172 whole entry): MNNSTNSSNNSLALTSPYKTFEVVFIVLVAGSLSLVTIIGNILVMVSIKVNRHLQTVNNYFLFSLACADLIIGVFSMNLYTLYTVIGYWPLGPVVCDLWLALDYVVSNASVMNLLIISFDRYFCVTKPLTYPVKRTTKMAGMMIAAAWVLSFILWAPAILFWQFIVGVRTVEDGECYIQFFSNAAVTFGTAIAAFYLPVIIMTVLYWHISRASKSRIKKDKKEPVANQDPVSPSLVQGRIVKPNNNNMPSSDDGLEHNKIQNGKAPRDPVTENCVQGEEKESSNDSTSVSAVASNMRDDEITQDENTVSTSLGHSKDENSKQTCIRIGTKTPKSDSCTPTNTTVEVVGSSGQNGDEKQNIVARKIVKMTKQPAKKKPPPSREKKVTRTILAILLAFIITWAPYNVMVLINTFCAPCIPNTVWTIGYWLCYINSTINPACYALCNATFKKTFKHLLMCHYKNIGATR

[3] = target: Muscarinic acetylcholine receptor M3 (Homo sapiens, UniProt P20309); assay: Binding affinity to human muscarinic M3 receptor
[4] = target: T3, Muscarinic acetylcholine receptor M1 (Homo sapiens, UniProt P11229); assay: Binding affinity to human muscarinic M1 receptor
T3 sequence (P11229 whole entry): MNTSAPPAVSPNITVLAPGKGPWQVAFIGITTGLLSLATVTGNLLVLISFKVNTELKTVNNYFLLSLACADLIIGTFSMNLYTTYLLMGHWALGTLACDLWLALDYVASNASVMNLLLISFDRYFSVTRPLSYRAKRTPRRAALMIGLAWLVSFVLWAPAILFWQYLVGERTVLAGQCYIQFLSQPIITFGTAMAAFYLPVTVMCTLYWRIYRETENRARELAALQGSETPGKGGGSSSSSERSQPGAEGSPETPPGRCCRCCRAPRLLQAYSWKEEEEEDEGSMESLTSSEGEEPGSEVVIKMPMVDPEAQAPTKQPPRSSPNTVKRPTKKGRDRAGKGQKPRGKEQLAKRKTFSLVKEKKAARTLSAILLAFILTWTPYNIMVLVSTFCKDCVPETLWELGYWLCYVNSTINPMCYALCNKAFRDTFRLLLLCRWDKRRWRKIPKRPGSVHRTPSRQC

Muscarinic acetylcholine receptor M3, sequence (P20309 whole entry): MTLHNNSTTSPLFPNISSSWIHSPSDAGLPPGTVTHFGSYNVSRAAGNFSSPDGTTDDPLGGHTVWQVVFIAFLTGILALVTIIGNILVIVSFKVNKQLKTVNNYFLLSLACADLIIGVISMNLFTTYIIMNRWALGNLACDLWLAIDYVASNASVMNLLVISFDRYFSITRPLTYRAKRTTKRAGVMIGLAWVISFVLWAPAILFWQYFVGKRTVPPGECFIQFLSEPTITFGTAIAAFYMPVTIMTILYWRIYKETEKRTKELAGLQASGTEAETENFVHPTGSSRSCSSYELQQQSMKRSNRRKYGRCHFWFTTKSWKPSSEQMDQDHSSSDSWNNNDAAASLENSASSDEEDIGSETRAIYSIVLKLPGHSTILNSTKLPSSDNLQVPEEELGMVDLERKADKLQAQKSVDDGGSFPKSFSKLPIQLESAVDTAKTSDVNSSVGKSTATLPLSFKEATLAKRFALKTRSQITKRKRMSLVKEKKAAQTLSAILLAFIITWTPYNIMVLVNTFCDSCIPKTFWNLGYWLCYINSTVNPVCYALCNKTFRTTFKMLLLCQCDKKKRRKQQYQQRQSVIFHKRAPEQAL

Compound	IC50 [1] [nM]	IC50 [2] [nM]	IC50 [3] [nM]	IC50 [4] [nM]	IC50 ([1]; cho) [nM]
COc1ccc(S(=O)(=O)O)cc1C1(C2CCN(Cc3ccc(Br)cc3)CC2)CCC(=O)NC1=O (racemic)	170				
COc1ccc(CN2CCC(C3(c4ccccc4)CCC(=O)NC3=O)CC2)cc1 (racemic)	4270				
O=C1CCC(c2ccccc2)(C2CCN(Cc3ccc(Cl)cc3Cl)CC2)C(=O)N1 (racemic)	3160				
CN1CCN(C(=O)c2cccc(C3(C4CCN(Cc5ccc(Br)cc5)CC4)CCC(=O)NC3=O)c2)CC1 (racemic)	1260				
NC(=O)CN1CCCC(c2ccccc2)(C2CCN(Cc3ccc(Br)cc3)CC2)C1 (single isomer, unassigned; (-))	810	2000	1100	5000	
CCC(=O)N1CCCC(c2ccccc2)(C2CCN(Cc3ccc(Br)cc3)CC2)C1 (racemic)	290				
O=C1CCC(c2ccccc2)(C2CCN(Cc3ccccc3)CC2)C(=O)N1 (racemic) [BENZETIMIDE]	> 10000				
CC(=O)N1CCCC(c2ccccc2)(C2CCN(Cc3ccc(Br)cc3)CC2)C1 (racemic)	140				
NC(=O)CN1CCCC(c2ccccc2)(C2CCN(Cc3ccc(Br)cc3)CC2)C1 (racemic)	80				
O=C1CCC(c2ccc(F)cc2F)(C2CCN(Cc3ccc(Br)cc3)CC2)C(=O)N1 (single isomer, unassigned; (+))	330	< 1	< 1	< 1	
O=C1CCC(c2ccccc2)(C2CCN(Cc3ccccc3)CC2)C(=O)N1 (stereo in doubt; (-)-3a) [BENZETIMIDE]		> 10000	> 10000	> 10000	> 10000
Nc1cccc(C2(C3CCN(Cc4ccc(Br)cc4)CC3)CCC(=O)NC2=O)c1 (racemic)	320				
O=CN1CCCC(c2ccccc2)(C2CCN(Cc3ccc(Br)cc3)CC2)C1 (racemic)	150				
NC(=O)CN1CCCC(c2ccccc2)(C2CCN(Cc3ccc(Br)cc3)CC2)C1 (stereo in doubt; (+)-47b)	60	> 10000	> 10000	> 10000	
O=C(Nc1ccccc1)N1CCCC(c2ccccc2)(C2CCN(Cc3ccc(Br)cc3)CC2)C1 (racemic)	60				
O=C1CCC(c2ccccc2)(C2CCN(Cc3ccccc3)CC2)C(=O)N1 (single isomer, unassigned; (+)) [BENZETIMIDE]		< 1	< 1	< 1	> 10000
NS(=O)(=O)N1CCCC(c2ccccc2)(C2CCN(Cc3ccc(Br)cc3)CC2)C1 (racemic)	210				
Cc1ccc(CN2CCC(C3(c4ccccc4)CCC(=O)NC3=O)CC2)cc1 (racemic) [MELETIMIDE]	2400				
COc1ccc(C2(C3CCN(Cc4ccc(Br)cc4)CC3)CCC(=O)NC2=O)cc1 (racemic)	3630				
CC(=O)N1CCCC(c2ccccc2)(C2CCN(Cc3ccc(Br)cc3)CC2)C1 (single isomer, unassigned; (-))	110	10000	3000	10000	

Compound	IC50 [1] [nM]	IC50 [2] [nM]	IC50 [3] [nM]	IC50 [4] [nM]	IC50 ([1]; cho) [nM]
O=C1CCC(c2ccccc2)(C2CCN(Cc3ccc(Cl)cc3)CC2)C(=O)N1 (racemic)	830				
O=C1CCC(c2cccc(Cl)c2)(C2CCN(Cc3ccc(Br)cc3)CC2)C(=O)N1 (racemic)	1450				
COc1cccc(C2(C3CCN(Cc4ccc(Br)cc4)CC3)CCC(=O)NC2=O)c1 (racemic)	1550				
O=C1CCC(c2ccc(F)cc2)(C2CCN(Cc3ccc(Br)cc3)CC2)C(=O)N1 (racemic)	1260				
NC(=O)N1CCCC(c2ccccc2)(C2CCN(Cc3ccc(Br)cc3)CC2)C1 (racemic)	250				
O=C1CCC(c2ccccc2)(C2CCN(Cc3ccc(Cl)c(F)c3)CC2)C(=O)N1 (single isomer, unassigned; (-))	340				
O=C(Nc1ccccc1)N1CCCC(c2ccccc2)(C2CCN(Cc3ccc(Br)cc3)CC2)C1 (single isomer, unassigned; (-))	30	> 10000	> 10000	> 10000	
O=C1CCC(c2ccccc2)(C2CCN(Cc3ccc(Cl)c(C(F)(F)F)c3)CC2)C(=O)N1 (racemic)	2510				
CCCN1C(=O)CCC(c2ccccc2)(C2CCN(Cc3ccc(Br)cc3)CC2)C1=O (racemic)	5010				
CC(=O)N1CCCC(c2ccccc2)(C2CCN(Cc3ccc(Br)cc3)CC2)C1 (single isomer, unassigned; (+))	2310	> 10000	> 10000	> 10000	
O=C(C1CC1)N1CCCC(c2ccccc2)(C2CCN(Cc3ccc(Br)cc3)CC2)C1 (racemic)	180				
O=C(N1CCCC(c2ccccc2)(C2CCN(Cc3ccc(Br)cc3)CC2)C1)C(F)(F)F (racemic)	690				
O=C(Nc1ccccc1)N1CCCC(c2ccccc2)(C2CCN(Cc3ccc(Br)cc3)CC2)C1 (single isomer, unassigned; (+))	6310	> 10000	> 10000	8900	
O=C1CCC(c2ccccc2)(C2CCN(Cc3ccc(F)cc3)CC2)C(=O)N1 (racemic)	4570				
O=C1CCC(c2ccc(F)cc2F)(C2CCN(Cc3ccc(Br)cc3)CC2)C(=O)N1 (racemic)	120				
CCOC(=O)N1CCCC(c2ccccc2)(C2CCN(Cc3ccc(Br)cc3)CC2)C1 (racemic)	320				
Brc1ccc(CN2CCC(C3(c4ccccc4)CCCNC3)CC2)cc1 (racemic)	> 10000				
O=C1CCC(c2ccccc2)(C2CCN(Cc3ccc(Br)cc3)CC2)C(=O)N1 (racemic)	780				
O=C1CCC(c2ccccc2)(C2CCN(Cc3ccc(Br)cc3)CC2)C(=O)N1 (single isomer, unassigned; (+))	1330	< 1	< 1	< 1	
O=C1CCC(c2ccc(F)cc2F)(C2CCN(Cc3ccc(Br)cc3)CC2)C(=O)N1 (single isomer, unassigned; (-))	60	> 10000	> 10000	> 10000	
